Measurements taken from patent publication US12115247B2, “Structured orodispersible films” (LTS LOHMANN THERAPIE-SYSTEME AG, priority 2017, dated 2024).

Assay: Loading of porous orodispersible film with anthraquinone suspension (coating cycles)
Type: physicochemical
Source text: For these tests an anthraquinone suspension (x50=400 nm) was used. These contained, in addition to the anthraquinone, also HPC as stabiliser in a concentration of cHPC=0.25 (in relation to the total quantity of anthraquinone in the suspension). The concentration of the suspension was varied in a range of from 0.05 to 0.2, and the suspension was applied between one and five times to the film. The suspension was applied to the film surface via an application nozzle with a volume of […] at a rate of 220 mm/min. The film used for the tests was a film with cHPC=0.28, as described in Example 1. The loading with anthraquinone was determined for each of the obtained films.

Question: With `O=C1c2ccccc2C(=O)c2ccccc21` [anthraquinone] as the compound, how does the anthraquinone loading (film cHPC=0.28, anthraquinone concentration of 0.2, five coating cycles) read?
Answer: Its anthraquinone loading is 4.9 mg/cm^2.

Question: And the highest loading (film cHPC=0.28, anthraquinone concentration of 0.2, five coating cycles, suspension also contains HPC stabiliser)?
Answer: The highest loading was 6.1 mg/cm^2.

Question: What about the “maximum active ingredient loading” value (per standard orodispersible film of 6 cm^2) of the same compound?
Answer: Its value is “approximately 30 mg”.
